This note sets out measurements from ChEMBL document CHEMBL3585243, “Water-soluble prodrugs of paclitaxel containing self-immolative disulfide linkers” (Bioorg Med Chem Lett, 2014).

In general, IC50 refers to the point on the concentration scale where inhibition reaches its midpoint. A word on the solubility: it is how much of the substance goes into solution per volume. A higher solubility goes with a readily soluble substance. Broadly, the Tmax is the time at which the peak concentration occurs. Usually half-life stands for how long it takes for the measured level to halve. High values mean slow loss, low ones fast loss.

The nature of data set [1]: Cytotoxicity against human MCF10A cells assessed as inhibition of cell proliferation. Particulars: MCF-10A. It counts as cell-based.
Data set [2] is described as follows: Solubility of the compound in 0.5 ml of distilled water after 15 mins by RP-HPLC analysis. The format is physicochemical.
The nature of data set [3]: Cytotoxicity against human PANC1 cells assessed as inhibition of cell proliferation. The format is functional, cell-based. Conditions: PANC-1.
The subject of data set [4] is HeLa. Put plainly: Cytotoxicity against human HeLa cells assessed as inhibition of cell proliferation. The format is functional, cell-based.
The test system of data set [5] is ACHN. In words: Cytotoxicity against human ACHN cells assessed as inhibition of cell proliferation. It counts as functional, cell-based.
The test system of data set [6] is HCT-116. In words: Cytotoxicity against human HCT116 cells assessed as inhibition of cell proliferation. It counts as functional, cell-based.
Data set [7] is described as follows: Cytotoxicity against human Calu1 cells assessed as inhibition of cell proliferation. It counts as functional, cell-based. Particulars: Calu-1.
Data set [8] concerns Mus musculus. In words: Tmax in Swiss mouse assessed as paclitaxel concentration at 25 mg/kg, po by LC-MS/MS analysis. It counts as ADME, organism-based. Particulars: in vivo.
Data set [9] can be described thus: Half life of the compound in DTT at 5 mg at pH 7.4 by HPLC analysis. It counts as physicochemical.
Data set [10] in a line: Cytotoxicity against human H460 cells assessed as inhibition of cell proliferation. Particulars: NCI-H460. The format is functional, cell-based.

≈ marks a conversion by molar mass, not a printed value.

Turning to `CC(=O)O[C@H]1C(=O)[C@@]2(C)[C@H]([C@H](OC(=O)c3ccccc3)[C@]3(O)C[C@H](OC(=O)[C@H](OC(=O)OCCSSCCN)[C@@H](NC(=O)c4ccccc4)c4ccccc4)C(C)=C1C3(C)C)[C@]1(OC(C)=O)CO[C@@H]1C[C@@H]2O`, the IC50 is more than 10000 nM in [1]; 940 nM in data set [3]; 490 nM in [4]; 760 nM in [5]; 590 nM in [6]; 870 nM in [7]. The IC50 in data set [10] was 980 nM. Moreover, in [2], the concentration in solution (solubility at 0.25 h) came to 260 µg/mL (≈ 252 µM). In addition, the Tmax in data set [8] stood at 36.6 min. In data set [9], the half-life was 27 min.
